{"source": "patent US5284837A", "about": "“Derivatives of purine, process for their preparation and a pharmaceutical preparation” (Medivir AB, priority 1988, dated 1994)", "key": {"[1]": {"assay": "Oral bioavailability in monkey (Test III)", "type": "in vivo, cynomologous monkeys", "protocol": "(§1) TEST III--ORAL BIOAVAILABILITY\n(§2) Oral bioavailability was determined by dosing the animals (cynomologous monkeys and rats) intravenously and orally on separate occasions with the compounds. Blood samples were taken after appropriate intervals for determination of drug level in plasma. Appropriate pharmacokinetic calculations were then carried out based on plasma concentration against time relationship."}, "[2]": {"assay": "Cellular toxicity, inhibition of H9 cell multiplication (Test II)", "type": "cell-based", "settings": "human, H9 cells", "protocol": "(§3) Test II--Cellular Toxicity\nH9 cells, 2×10^7 cells per plate, are incubate in RPMI-1640 medium containing 10% fetal calf serum, 70 mg/l penicillin, 100 mg/l streptomycin and 10 mM hepes, in absence or presence of test compounds. The number of cells per plate is determined after 48 h. Cells incubated in the absence of test compounds then underwent two cell division cycles.\n(§4) F5000 cells, which are human embryo cells, 1×10^5 cells per plate, are incubated in Eagle's minimal essential medium, supplemented with Earle's salts, non-essential amino acids, 10% fetal calf serum, 10 mM hepes, 70 mg/l penicillin and 100 mg/l streptomycin, in absence or presence of test compounds. The number of cells per plate is determined after 48 h. Cells incubated in the absence of test compounds underwent one cell division cycle."}, "[3]": {"tested_on": "HIV (HTLV-IIIB) in H9 cells", "assay": "Effect of compounds on HIV multiplication in H9 cells (Test I)", "type": "cell-based, human immunodeficiency virus (HTLV-IIIB)", "settings": "6-7 days, read-out: Concentration (μM) for 50% inhibition (IC50) of human immuno deficiency virus multiplication in cell culture", "protocol": "Materials and Methods: HIV Infection of H9 Cells H9 cells, 10^5 cells per well on a 24 well plate, suspended in 2 ml RPMI-medium containing 10% fetal calf serum, 100 μg/ml pencillin, 10 μg/ml streptomycin sulfate and 2 μg/ml polybrene are exposed to HIV (HTLV-IIIB) and different concentrations of the test compounds. The plates are incubated at 37° C. in 5% CO2 for 6-7 days. The contents in each well is then homogenized with a pipette and transferred to a centrifuge tube. After centrifugation for 10 min at 1500 rpm the supernatant is removed and the cell pellet is analyzed by fixing in methanol on glass plates. Human HIV positive serum diluted 1:80 or 1:160 is added and incubated for 30 min at 37° C. The pate is then washed with phosphate-buffered saline (PBS) containing Ca2+ and Mg2+. Sheep antihuman conjugate (FITC) is added and after a new incubation the plate is again washed with PBS. Contrast staining is done with Evans blue and after drying the frequency of HIV antigen containing cells is determined in a microscope."}, "[4]": {"assay": "Oral bioavailability in rat (Test III)", "type": "in vivo", "settings": "for plasma concentration of VSA 671 after VSA 671 has been given as 6-deoxy prodrug or ester: in words", "protocol": "as §1, §2"}, "[5]": {"assay": "Cellular toxicity, inhibition of F5000 cell multiplication (Test II)", "type": "cell-based", "settings": "human, f5000 cells", "protocol": "as §3, §4"}, "[6]": {"settings": "plasma AUC relative to AUC after intravenously given VSA 671, read-out: Oral bioavailability F of compound determined as VSA 671"}, "[7]": {"settings": "Human immunodeficiency virus 1, IIIB, H9, H9 cells"}}, "note": "Structures can show the parent of a compound that is named as a salt. Where two headings read alike, the source gives them in different places."}
{"smiles": "CC(=O)OCCC(COC(C)=O)Cn1cnc2cnc(N)nc21", "note": "(stereo not drawn) [VSC 610, 2-(2-Aminopurin-9-yl)methylbutane-1,4-diol diacetate]", "values": [{"measurement": "plasma concentration of VSA 671 after VSA 671 has been given as ester of 6-deoxy prodrug", "setting": "[1]; in words", "value": "significantly increased"}]}
{"smiles": "Nc1nc2c(ncn2CC(CO)CCO)c(=O)[nH]1", "note": "(single isomer, unassigned; (-)) [VSB 647, (-)-9-(4-Hydroxy-2-hydroxymethylbutyl)guanine]", "values": [{"measurement": "inhibition at 48 h, 100 µM", "setting": "[2]; 100 μM", "value": 5, "unit": "%"}, {"measurement": "IC50", "setting": "[3]; H9 cells", "value": "0.1 to 7", "unit": "µM"}]}
{"smiles": "Nc1nc2c(ncn2CC(CO)CCO)c(=O)[nH]1", "note": "(racemic) [VSA 671, 9-[4-hydroxy-2-(hydroxymethyl)butyl]guanine]", "values": [{"measurement": "inhibition at 48 h, 500 µM", "setting": "[2]; 500 μM", "value": 55, "unit": "%"}, {"measurement": "bioavailability", "setting": "[4]; [6]", "value": 11, "unit": "%"}, {"measurement": "inhibition at 48 h, 1000 µM", "setting": "[5]; 1000 μM", "value": 55, "unit": "%"}, {"measurement": "IC50", "setting": "[3]; [7]", "value": "1 to 10", "unit": "µM"}, {"measurement": "bioavailability", "setting": "[1]; [6]", "value": 10, "unit": "%"}]}
{"smiles": "CCC(=O)OCCC(COC(=O)CC)Cn1cnc2c(=O)[nH]c(N)nc21", "note": "(stereo not drawn) [VSC 641, 9-[4-propionoxy-2-(propionoxymethyl)butyl]guanine.HCl]", "values": [{"measurement": "plasma concentration of VSA 671 after VSA 671 has been given as 6-deoxy prodrug or ester", "setting": "[4]", "value": "significantly increased"}]}
{"smiles": "Nc1nc2c(ncn2CC(CO)CCO)c(=O)[nH]1", "note": "(single isomer, unassigned; (+)) [VSB 648, (+)-9-[4-hydroxy-2(hydroxymethyl)butyl]-guanine]", "values": [{"measurement": "IC50", "setting": "[3]; H9 cells", "value": "1 to 5", "unit": "µM"}]}
{"smiles": "Nc1ncnc2c1ncn2CC(CO)CCO", "note": "(stereo not drawn) [VSC 600, 9-(4-Hydroxy-2-hydroxymethylbutyl)adenine]", "values": [{"measurement": "inhibition at 48 h, 200 µM", "setting": "[2]; 200 μM", "value": 25, "unit": "%"}, {"measurement": "inhibition at 48 h, 500 µM", "setting": "[5]; 500 μM", "value": 25, "unit": "%"}, {"measurement": "IC50", "setting": "[3]; [7]", "value": 10, "unit": "µM"}]}
{"smiles": "Nc1ncc2ncn(CC(CO)CCO)c2n1", "note": "(stereo not drawn) [VSB 212, 2-(2-Aminopurin-9yl)methyl butan-1,4-diol]", "values": [{"measurement": "plasma concentration of VSA 671 after VSA 671 has been given as 6-deoxy prodrug or ester", "setting": "[4]", "value": "significantly increased"}]}
{"smiles": "CC(=O)OCCC(COC(C)=O)Cn1cnc2c(=O)[nH]c(N)nc21", "note": "(stereo not drawn) [VSC 640, 9-[4-acetoxy-2-(acetoxymethyl)butyl]guanine.HCl]", "values": [{"measurement": "plasma concentration of VSA 671 after VSA 671 has been given as 6-deoxy prodrug or ester", "setting": "[4]", "value": "significantly increased"}]}
